The values that follow come from PubChem BioAssay (NCI).

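A five-concentration, 48-hour dose response in 96-well plates underlies each endpoint, interpolated linearly between surrounding concentrations. TGI: total growth inhibition.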

Among the test systems are HCT-15 colon; SF-295 CNS; NCI-H522 lung; MOLT-4 leukemia; SW-620 colon; KM12 colon; NCI-H460 lung; COLO 205 colon; IGROV1 ovarian; UACC-62 melanoma; SF-268 CNS; SK-OV-3 ovarian; OVCAR-4 ovarian; EKVX NSCLC; UO-31 renal; HL-60(TB) leukemia; NCI/ADR-RES ovarian; 786-0 renal; T-47D breast.
Holding throughout (test): NCI-60 cell line screen, 48 h

Turning to `Cn1c2ccccc2n2c(=O)c3cc([N+](=O)[O-])ccc3c(C#N)c12`, the TGI with HCT-15 colon, in the experiment on SF-295 CNS, with NCI-H522 lung, in the experiment on MOLT-4 leukemia, in the experiment with SW-620 colon and with KM12 colon was more than 100 µM in each case. For the same molecule, the TGI with NCI-H460 lung, with COLO 205 colon, in the experiment with IGROV1 ovarian, in the experiment on UACC-62 melanoma, with SF-268 CNS and in the experiment with SK-OV-3 ovarian was more than 100 µM each time. Also, the TGI with OVCAR-4 ovarian, in the experiment with EKVX NSCLC, in the experiment on UO-31 renal, with HL-60(TB) leukemia, in the experiment on NCI/ADR-RES ovarian and with 786-0 renal was more than 100 µM in each case. For the same molecule, the TGI with T-47D breast is more than 100 µM.
For the molecule `COc1ccc2c(c1)CN1C(=N2)CSC1c1ccccc1Cl` (stereo not given), the TGI in the experiment on HCT-15 colon came out at 38.9 µM; in the experiment with SF-295 CNS it was 75.6 µM; with NCI-H522 lung, 39.2 µM; with MOLT-4 leukemia, 19 µM; in the experiment with SW-620 colon it was 41.7 µM; with KM12 colon, 34.8 µM. Further, the TGI came to 32.7 µM in the experiment on NCI-H460 lung; 28.3 µM in the experiment with COLO 205 colon; 42.2 µM in the experiment on IGROV1 ovarian; 34.6 µM with UACC-62 melanoma; 76.4 µM with SF-268 CNS; 79.2 µM in the experiment on SK-OV-3 ovarian. Also, the TGI in the experiment on OVCAR-4 ovarian is 45.1 µM; in the experiment on EKVX NSCLC it was 35.4 µM; in the experiment with UO-31 renal it was 38.3 µM; with HL-60(TB) leukemia, 24.9 µM; in the experiment with NCI/ADR-RES ovarian, 53.8 µM; with 786-0 renal, 34.5 µM. The same molecule registered a TGI with T-47D breast of more than 100 µM.
Turning to `COc1cc(I)c2c3c1OC1C34CCN(C)C(C2)C4=CC(I)C1(OC)OC` (stereo not given), the TGI in the experiment on HCT-15 colon was 63.4 µM; with SF-295 CNS, more than 100 µM; in the experiment with NCI-H522 lung, 44.2 µM; in the experiment with MOLT-4 leukemia, 42.4 µM; with SW-620 colon it was 52.2 µM; in the experiment on KM12 colon, 40 µM. The TGI with NCI-H460 lung came to 38.7 µM; in the experiment on COLO 205 colon, 45.2 µM; in the experiment on IGROV1 ovarian, 54.3 µM; with UACC-62 melanoma it was 42 µM; in the experiment with SF-268 CNS it was 61.5 µM; in the experiment with SK-OV-3 ovarian, 68 µM. Besides, the TGI is 55.9 µM with OVCAR-4 ovarian; more than 100 µM with EKVX NSCLC; 34.7 µM in the experiment on UO-31 renal; 47.3 µM with HL-60(TB) leukemia; 68 µM in the experiment on NCI/ADR-RES ovarian; 43.7 µM in the experiment with 786-0 renal. This molecule registered a TGI with T-47D breast of 31.1 µM.
Turning to `c1ccc2c3c(c(N4CCOCC4)nc2c1)CCCC3`, the TGI with HCT-15 colon, in the experiment on SF-295 CNS, in the experiment with NCI-H522 lung, in the experiment with MOLT-4 leukemia, in the experiment with SW-620 colon and in the experiment on KM12 colon was more than 100 µM each time. In addition, the TGI in the experiment with NCI-H460 lung is more than 100 µM; with COLO 205 colon, 46.5 µM; with IGROV1 ovarian it was more than 100 µM; in the experiment with UACC-62 melanoma, more than 100 µM; in the experiment on SF-268 CNS it was more than 100 µM; in the experiment with SK-OV-3 ovarian, more than 100 µM. For the same molecule, the TGI with OVCAR-4 ovarian is more than 100 µM; in the experiment on EKVX NSCLC it was 63.8 µM; with UO-31 renal it was more than 100 µM; in the experiment with HL-60(TB) leukemia it was 69.3 µM; with NCI/ADR-RES ovarian, more than 100 µM; in the experiment on 786-0 renal it was 92.9 µM. This molecule also showed a TGI in the experiment on T-47D breast of 72.8 µM.
Consider `Cc1cc2[nH]c3c(C#N)c4c(c(=O)n3c2cc1C)CCCC4`, for which the TGI in the experiment with HCT-15 colon is more than 100 µM; with SF-295 CNS, 29.5 µM; in the experiment on NCI-H522 lung it was more than 100 µM; in the experiment on MOLT-4 leukemia, more than 100 µM; in the experiment on SW-620 colon, more than 100 µM; with KM12 colon, more than 100 µM. The TGI with NCI-H460 lung is more than 100 µM; in the experiment on COLO 205 colon, more than 100 µM; in the experiment with IGROV1 ovarian it was more than 100 µM; in the experiment with UACC-62 melanoma it was more than 100 µM; in the experiment on SF-268 CNS it was more than 100 µM; in the experiment on SK-OV-3 ovarian, 27.1 µM. In addition, the TGI with OVCAR-4 ovarian, with EKVX NSCLC, in the experiment with UO-31 renal, in the experiment on HL-60(TB) leukemia, in the experiment with NCI/ADR-RES ovarian and with 786-0 renal was more than 100 µM in each case. The TGI in the experiment with T-47D breast is more than 100 µM.
